This note sets out measurements from US20220175859A1, “Tetraselmis Extract” (SYMRISE AG, priority 2018, published 2022).

Holding throughout (assay type): cell-based
The test system of data set [1] is human sebaceous glands. The data set is described as follows: Synergistic effect of Tetraselmis suecica extract and niacinamide on total lipid content of ex vivo human sebaceous glands (Kull's equation). The conditions noted are these: Donor 1 (Example 4); 0.3 ppm extract, 100 ppm niacinamide, or 0.15 ppm extract + 50 ppm niacinamide.
Text: Kull's equation for calculation of the synergism index SI was used:
A=lipid reduction by Tetraselmis suecica extract at concentration x B=lipid reduction by niacinamide at concentration y C=lipid reduction by the combination of Tetraselmis suecica extract at concentration x/2 and niacinamide at concentration y/2 D=Factor for Tetraselmis suecica extract=>0.5 (due to half concentration tested in the combination) E=Factor for niacinamide=>0.5 (due to half concentration tested in the combination) A SI=1 is obtained for additive activity of the two combined components, whereas a SI<1 proves antagonistic activity (observed efficacy is lower than additive) and SI>1 proves synergistic activity (observed efficacy is higher than additive).
The subject of data set [2] is human sebaceous glands. Nature of the data set: Viability test (resazurin) of micro-dissected human sebaceous glands. As to the method:
To better understand the response to the extract, a viability test was performed in parallel at day 1 and day 6 of organ culture. Resazurin was added to the wells (1:11) and let incubate for 2 hours. At the end of the incubation an aliquot of the medium was read with a fluorometer (excitation: 560 nm, emission: 590 nm). The medium was then replaced with normal medium for 2 hours in order to eliminate residual resazurin. After this the medium was replaced again with medium containing the test samples. The viability in each well was measured as the difference in percentage between day 6 and day 1.
The same experimental set-up as described in Example 3 was used to evaluate the combination of Tetraselmis suecica extract and niacinamide for synergistic activity.
For orientation: Resazurin is reduced to fluorescent resorufin, in cell work by metabolically active cells.

Data set [3] relates to human sebaceous glands. The data set is described as follows: Total lipid content of micro-dissected ex vivo human sebaceous glands (organ culture). As to conditions: extract 0.3 ppm, Capsaicin 5 μM (=1.5 ppm), lipids normalized to proteins. As to the method:
Organ culture of human sebaceous glands micro-dissected from human skin explants was performed to evaluate the modulatory activity of Tetraselmis suecica extract prepared according to the description given in Example 1 on the sebum level. The extract is employed in the dried form. After removal of the epidermis of the full thickness skin sample, the sebaceous glands were carefully removed using micro-scissors and scalpel. The micro-dissected sebaceous glands were then pooled in groups of 8 and cultured up to day 6 in a 24 well plate immersed in 500 μl of modified Williams' E medium. After 24 hours of acclimation the culture medium was changed and substituted with the medium containing the extract to be tested. The medium was renewed at day 3 and 5 of culture. At day 6 the glands were collected and used for the quantification of lipids and proteins. […] To do so, each sebaceous glands group was homogenized in 100 μl of isopropyl alcohol to extract lipids and let the proteins undissolved. After centrifugation the supernatant containing the extracted sebum was collected and analyzed. The remaining pellet was dried using a vacuum dry evaporator and then minced in presence of 50 μl of protein lysis buffer. After an appropriate incubation time, this extractive mixture was centrifuged, and the supernatant was collected and analyzed. The lipids dissolved in isopropyl alcohol and the proteins dissolved in the lysis buffer were quantified by infrared spectroscopy using a Direct Detect IR Spectrometer (Millipore). The total lipid amount was obtained by normalizing the quantified lipids upon the quantified proteins (i.e. mg of lipids/mg of proteins). The amounts of normalized lipids, i.e. the sebum produced by each group of sebaceous glands, obtained from the treated groups was compared to that of the untreated control group and the modulatory activity was calculated in percentage. […] For statistical analysis, differences among groups were evaluated by one-way anova with permutation test followed by Dunnett's permutation test. […]

As for `NC(=O)c1cccnc1` [niacinamide, Niacinamide], the “Reduction of lipids at day 6 versus untreated” value in the data set on human sebaceous glands [1] was 6%. Moreover, the Viability with human sebaceous glands [2] (Donor 1 (Example 4), 0.3 ppm extract, 100 ppm niacinamide, or 0.15 ppm extract + 50 ppm niacinamide, untreated 81) was found to be 78%.

Take `COc1cc(CNC(=O)CCCC/C=C/C(C)C)ccc1O` [Capsaicin]: the “Reduction of lipids at day 6 versus untreated” value turned out to be 11% in the data set with human sebaceous glands [3] (Donor 1), 28% in the data set on human sebaceous glands [3] (Donor 2) and 14% in the data set with human sebaceous glands [3] (Donor 3). Further, the Viability was 92% in the data set on human sebaceous glands [2] (Donor 1, day 6 versus day 1, extract 0.3 ppm, Capsaicin 5 μM (1.5 ppm), untreated 93); 99% with human sebaceous glands [2] (Donor 2, day 6 versus day 1, extract 0.3 ppm, Capsaicin 5 μM (1.5 ppm), untreated 100); 85% in the data set on human sebaceous glands [2] (Donor 3, day 6 versus day 1, extract 0.3 ppm, Capsaicin 5 μM (1.5 ppm), untreated 81).
